Reference: patent publication US20230089073A1 (Carmot Therapeutics, Inc., priority 2021, published 2023)
pEC50: −log10 of the molar value.

Biological target: T1, human GLP-1 receptor (Homo sapiens, UniProt P43220)
T1 construct: expressed in transfected cells
Experiment: GLP-1R cAMP Assay
Type: cell-based
Details: cAMP accumulation in CHO cells stably overexpressing the human GLP-1 receptor; 30 min treatment; HitHunter cAMP kit; read-out: EC50
How it was run: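 Luminescent enzyme-complementation detection of cAMP, read after cell lysis and overnight incubation, with dose-response curve fitting. Stimulation lasted 30 min, using 20-point triplicate dosing on CHO cells (10,000 per well) stably overexpressing human GLP-1R.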

T1 sequence (P43220 24-463): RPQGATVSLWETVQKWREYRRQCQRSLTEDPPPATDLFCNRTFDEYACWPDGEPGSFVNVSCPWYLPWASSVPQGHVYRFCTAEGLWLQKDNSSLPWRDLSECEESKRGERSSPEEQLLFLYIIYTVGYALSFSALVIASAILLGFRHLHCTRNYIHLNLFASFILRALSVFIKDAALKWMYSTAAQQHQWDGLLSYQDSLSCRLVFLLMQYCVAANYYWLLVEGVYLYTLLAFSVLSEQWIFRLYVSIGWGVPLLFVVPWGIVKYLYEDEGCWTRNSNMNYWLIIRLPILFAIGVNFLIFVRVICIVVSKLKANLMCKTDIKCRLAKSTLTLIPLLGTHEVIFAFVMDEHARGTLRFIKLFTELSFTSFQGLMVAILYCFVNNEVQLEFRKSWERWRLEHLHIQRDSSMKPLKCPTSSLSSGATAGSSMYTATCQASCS

Structure (SMILES) | pEC50
N#Cc1ccc(COc2cccc(N3CCN(C(=O)c4ccc(-c5nnn[nH]5)nc4)CC3)n2)c(F)c1 [Example 92, 4-(((6-(4-(6-(1H-Tetrazol-5-yl)nicotinoyl)piperazin-1-yl)pyridin-2-yl)oxy)methyl)-3-fluorobenzonitrile] | 6.30 to 7.30
C[C@H]1C[C@@H](Oc2ccnc(COc3ccc(C4CC4)cc3C#N)n2)CCN1Cc1nc2ccc(C(=O)O)cc2n1C[C@@H]1CCO1 [Compound 510, 2-(((2S,4S)-4-((2-((2-cyano-4-cyclopropylphenoxy)methyl)pyrimidin-4-yl)oxy)-2-methylpiperidin-1-yl)methyl)-1-(((S)-oxetan-2-yl)methyl)-1H-benzo[d]imidazole-6-carboxylic acid] | > 7.30
Cc1ccc(Oc2ccc(C(=O)N3CCN(Cc4nc5ccc(C(=O)O)cc5n4C[C@@H]4CCO4)CC3)cc2)cc1 [Compound 22, 2-({4-[4-(4-methylphenoxy)benzoyl]piperazin-1-yl}methyl)-1-{[(2S)-oxetan-2-yl]methyl}-1H-1,3-benzodiazole-6-carboxylic acid] | < 6.30
Cc1ccc(N(C)c2cccc(C=C3CCN(Cc4nc5ccc(C(=O)O)cc5n4C[C@@H]4CCO4)CC3)c2)c(Cl)c1 [Example 106, (S)-2-((4-(3-((2-chloro-4-methylphenyl)(methyl)amino)benzylidene)piperidin-1-yl)methyl)-1-(oxetan-2-ylmethyl)-1H-benzo[d]imidazole-6-carboxylic acid] | 6.30 to 7.30
CCn1cncc1Cn1c(CN2CCN(Cc3ccc(COc4ccc(Cl)cc4Cl)o3)CC2)nc2ccc(C(=O)O)cc21 [Compound 63, 2-{[4-({5-[(2,4-dichlorophenoxy)methyl]furan-2-yl}methyl)piperazin-1-yl]methyl}-1-[(1-ethyl-1H-imidazol-5-yl)methyl]-1H-1,3-benzodiazole-6-carboxylic acid] | > 7.30
CCn1cncc1Cn1c(CN2CCC(Oc3cccnc3COc3ccc(Cl)cc3Cl)CC2)nc2ccc(C(=O)O)cc21 [Example 271, 2-((4-((2-((2,4-Dichlorophenoxy)methyl)pyridin-3-yl)oxy)piperidin-1-yl)methyl)-1-((1-ethyl-1H-imidazol-5-yl)methyl)-1H-benzo[d]imidazole-6-carboxylic acid] | 6.30 to 7.30
Cc1ccc(Nc2cccc(C(=O)N3CCN(Cc4nc5ccc(C(=O)O)cc5n4C[C@@H]4CCO4)CC3)c2)c(Cl)c1 [Compound 50, 2-[(4-{3-[(2-chloro-4-methylphenyl)amino]benzoyl}piperazin-1-yl)methyl]-1-{[(2S)-oxetan-2-yl]methyl}-1H-1,3-benzodiazole-6-carboxylic acid] | < 6.30
Clc1ccc(COc2cccc(C3=CCN(Cc4ccc(-c5nn[nH]n5)nc4)CC3)n2)c(Cl)c1 [Example 110, 1′-((6-(2H-Tetrazol-5-yl)pyridin-3-yl)methyl)-6-((2,4-dichlorobenzyl)oxy)-1′,2′,3′,6′-tetrahydro-2,4′-bipyridine] | 6.30 to 7.30
C[C@H]1C[C@@H](Oc2ccnc(COc3ccc(F)cc3C#N)n2)CCN1Cc1nc2ccc(C(=O)O)cc2n1CC1(CC#N)CC1 [Compound 353] | > 7.30
CCn1cncc1Cn1c(CN2CCC([C@@H](F)c3cccc(COc4ccc(Cl)cc4Cl)c3)CC2)nc2ccc(C(=O)O)cc21 (single isomer, unassigned) [Compound 203] | > 7.30
CCn1cncc1Cn1c(CN2CCC(Oc3cc(COc4ccc(Cl)cc4Cl)ccn3)CC2)nc2ccc(C(=O)O)cc21 [Compound 179, 2-{[4-({4-[(2,4-dichlorophenoxy)methyl]pyridin-2-yl}oxy)piperidin-1-yl]methyl}-1-[(1-ethyl-1H-imidazol-5-yl)methyl]-1H-1,3-benzodiazole-6-carboxylic acid] | > 7.30
Cc1ccc(N(C)c2cccc(S(=O)(=O)N3CCN(Cc4nc5ccc(C(=O)O)cc5n4C[C@@H]4CCO4)CC3)c2)c(Cl)c1 [Compound 86, 2-[(4-{3-[(2-chloro-4-methylphenyl)(methyl)amino]benzenesulfonyl}piperazin-1-yl)methyl]-1-{[(2S)-oxetan-2-yl]methyl}-1H-1,3-benzodiazole-6-carboxylic acid] | < 6.30
Cc1ccc(N(C)c2cncc(C(=O)N3CCN(Cc4nc5ccc(C(=O)O)cc5n4C[C@@H]4CCO4)CC3)c2)c(Cl)c1 [Compound 85, 2-[(4-{5-[(2-chloro-4-methylphenyl)(methyl)amino]pyridine-3-carbonyl}piperazin-1-yl)methyl]-1-{[(2S)-oxetan-2-yl]methyl}-1H-1,3-benzodiazole-6-carboxylic acid] | 6.30 to 7.30
O=C(O)c1ccc2nc(CN3CCN(C(=O)c4ccc(OCc5ccc(Cl)cc5Cl)o4)CC3)n(C[C@@H]3CCO3)c2c1 [Example 73, (S)-2-((4-(5-((2,4-Dichlorobenzyl)oxy)furan-2-carbonyl)piperazin-1-yl)methyl)-1-(oxetan-2-ylmethyl)-1H-benzo[d]imidazole-6-carboxylic acid] | < 6.30
Cc1ccc(N(C)c2cccc(C3(N4CCN(Cc5nc6ccc(C(=O)O)cc6n5C[C@@H]5CCO5)CC4)CC3)c2)c(Cl)c1 [Example 105, (S)-2-((4-(1-(3-((2-chloro-4-methylphenyl)(methyl)amino)phenyl)cyclopropyl)piperazin-1-yl)methyl)-1-(oxetan-2-ylmethyl)-1H-benzo[d]imidazole-6-carboxylic acid] | < 6.30

The remaining lines, values ahead:

pEC50 | Structure (SMILES)
> 7.30 | N#Cc1ccc(OCc2nccc(OC3CCN(Cc4nc5c(F)cc(C(=O)O)cc5n4C[C@@H]4CCO4)CC3)n2)c(F)c1 [Compound 328]
> 7.30 | O=C(O)c1ccc2nc(CN3CCC(Oc4ccnc(COc5ccc(F)cc5C(F)F)c4)CC3)n(C[C@@H]3CCO3)c2c1 [Compound 357]
> 7.30 | O=C(O)c1ccc2nc(CN3CCC(Oc4cccc(COc5ccc(Cl)cc5F)n4)CC3)n(Cc3cnco3)c2c1 [Compound 269, 2-{[4-({6-[(4-chloro-2-fluorophenoxy)methyl]pyridin-2-yl}oxy)piperidin-1-yl]methyl}-1-[(1,3-oxazol-5-yl)methyl]-1H-1,3-benzodiazole-6-carboxylic acid]
6.30 to 7.30 | CCn1cncc1Cn1c(CN2CCC(Oc3cccc(COc4ncc(Cl)cc4F)c3)CC2)nc2ccc(C(=O)O)cc21 [Compound 294]
> 7.30 | O=C(O)c1cc(F)c2nc(CN3CCC(Oc4ccnc(COc5ccc(Cl)cc5F)n4)CC3)n(C[C@@H]3CCO3)c2c1 [Compound 315]
> 7.30 | N#Cc1ccc(OCc2cc(OC3CCN(Cc4nc5ccc(C(=O)O)cc5n4C[C@@H]4CCO4)CC3)c(F)cn2)c(F)c1 [Example 367, (S)-2-((4-((2-((4-Cyano-2-fluorophenoxy)methyl)-5-fluoropyridin-4-yl)oxy)piperidin-1-yl)methyl)-1-(oxetan-2-ylmethyl)-1H-benzo[d]imidazole-6-carboxylic acid]
> 7.30 | O=C(O)c1cc(F)c2nc(CN3CCC(Oc4cccc(COc5ccc(C(F)F)cc5F)c4)CC3)n(C[C@@H]3CCO3)c2c1 [Compound 310]
> 7.30 | N#CCC1(Cn2c(CN3CCC(Oc4ccnc(COc5ccc(Cl)cc5Cl)n4)CC3)nc3c(F)cc(C(=O)O)cc32)CC1 [Compound 341]
> 7.30 | O=C(O)c1ccc2nc(CN3CCC(Cc4cnc(COc5ccc(Cl)cc5Cl)o4)CC3)n(C[C@@H]3CCO3)c2c1 [Example 60, (S)-2-((4-((2-((2,4-Dichlorophenoxy)methyl)oxazol-5-yl)methyl)piperidin-1-yl)methyl)-1-(oxetan-2-ylmethyl)-1H-benzo[d]imidazole-6-carboxylic acid]
> 7.30 | N#Cc1cc(F)c(F)cc1OCc1nccc(OC2CCN(Cc3nc4ccc(C(=O)O)cc4n3C[C@@H]3CCO3)CC2)n1 [Compound 504, 2-{[4-({2-[(2-cyano-4,5-difluorophenoxy)methyl]pyrimidin-4-yl}oxy)piperidin-1-yl]methyl}-1-{[(2S)-oxetan-2-yl]methyl}-1H-1,3-benzodiazole-6-carboxylic acid]
> 7.30 | N#Cc1cc(C2CC2)ccc1OCc1nccc(OC2CCN(Cc3nc4c(F)cc(C(=O)O)cc4n3C[C@@H]3CCO3)CC2)n1 [Compound 508, (S)-2-((4-((2-((2-cyano-4-cyclopropylphenoxy)methyl)pyrimidin-4-yl)oxy)piperidin-1-yl)methyl)-4-fluoro-1-(oxetan-2-ylmethyl)-1H-benzo[d]imidazole-6-carboxylic acid]
> 7.30 | O=C(O)c1ccc2nc(CN3CCC(Oc4cccc(COc5ccc(Cl)cc5Cl)c4)CC3)n(C[C@@H]3CCO3)c2c1F [Compound 224, 2-[(4-{3-[(2,4-dichlorophenoxy)methyl]phenoxy}piperidin-1-yl)methyl]-7-fluoro-1-{[(2S)-oxetan-2-yl]methyl}-1H-1,3-benzodiazole-6-carboxylic acid]
6.30 to 7.30 | N#Cc1cc(Cl)ccc1OCc1cccc(OC2CCN(Cc3nc4ccc(C(=O)O)cc4n3C[C@@H]3CCO3)CC2)n1 [Compound 248, 2-{[4-({6-[(4-chloro-2-cyanophenoxy)methyl]pyridin-2-yl}oxy)piperidin-1-yl]methyl}-1-{[(2S)-oxetan-2-yl]methyl}-1H-1,3-benzodiazole-6-carboxylic acid]
> 7.30 | C[C@H]1C[C@@H](Oc2ccnc(COc3ccc(C#N)cc3F)n2)CCN1Cc1nc2c(F)cc(C(=O)O)cc2n1C[C@@H]1CCO1 [Compound 323]
> 7.30 | O=C(O)c1ccc2nc(CN3CCC(Oc4cccc(COc5cccc(Cl)c5Cl)c4)CC3)n(C[C@@H]3CCO3)c2c1 [Compound 243, 2-[(4-{3-[(2,3-dichlorophenoxy)methyl]phenoxy}piperidin-1-yl)methyl]-1-{[(2S)-oxetan-2-yl]methyl}-1H-1,3-benzodiazole-6-carboxylic acid]
> 7.30 | C[C@H]1C[C@@H](Oc2ccnc(COc3ccc(F)cc3F)n2)CCN1Cc1nc2ccc(C(=O)O)cc2n1C[C@@H]1CCO1 [Compound 485, 2-{[(2S,4S)-4-({2-[(2,4-difluorophenoxy)methyl]pyrimidin-4-yl}oxy)-2-methylpiperidin-1-yl]methyl}-1-{[(2S)-oxetan-2-yl]methyl}-1H-1,3-benzodiazole-6-carboxylic acid]
